Assay results taken from ChEMBL document CHEMBL1133452, “Identification of novel purine and pyrimidine cyclin-dependent kinase inhibitors with distinct molecular interactions and tumor cell growth inhibition profiles” (J Med Chem, 2000).

Legend:
[1] = target: Cyclin-dependent kinase 2 (Homo sapiens, UniProt P24941); assay: Inhibition of Cyclin-dependent kinase 2 enzyme from starfish oocytes; design: species or system Marthasterias glacialis, Oocyte
NCI = assay: cells; details: Homo sapiens, read-out: Mean GI50
Description: Inhibition of NCI cell line proliferation

[2] = target: Cyclin-dependent kinase 1/cyclin B (Homo sapiens, UniProt O95067+P06493+P14635+Q8WWL7); assay: Inhibition of Cyclin-dependent kinase 1 enzyme from starfish oocytes; design: species or system Marthasterias glacialis, Oocyte
Cyclin-dependent kinase 1/cyclin B, sequence (P06493 whole entry): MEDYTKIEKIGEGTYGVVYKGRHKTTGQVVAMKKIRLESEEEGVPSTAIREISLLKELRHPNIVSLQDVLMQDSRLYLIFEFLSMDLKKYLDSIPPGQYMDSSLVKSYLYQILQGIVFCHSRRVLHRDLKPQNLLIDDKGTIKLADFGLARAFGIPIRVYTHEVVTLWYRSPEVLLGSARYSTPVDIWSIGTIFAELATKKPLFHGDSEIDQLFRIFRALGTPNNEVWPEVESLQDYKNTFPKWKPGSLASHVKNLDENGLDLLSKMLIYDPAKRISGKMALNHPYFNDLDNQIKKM
Cyclin-dependent kinase 1/cyclin B, sequence (P14635 whole entry): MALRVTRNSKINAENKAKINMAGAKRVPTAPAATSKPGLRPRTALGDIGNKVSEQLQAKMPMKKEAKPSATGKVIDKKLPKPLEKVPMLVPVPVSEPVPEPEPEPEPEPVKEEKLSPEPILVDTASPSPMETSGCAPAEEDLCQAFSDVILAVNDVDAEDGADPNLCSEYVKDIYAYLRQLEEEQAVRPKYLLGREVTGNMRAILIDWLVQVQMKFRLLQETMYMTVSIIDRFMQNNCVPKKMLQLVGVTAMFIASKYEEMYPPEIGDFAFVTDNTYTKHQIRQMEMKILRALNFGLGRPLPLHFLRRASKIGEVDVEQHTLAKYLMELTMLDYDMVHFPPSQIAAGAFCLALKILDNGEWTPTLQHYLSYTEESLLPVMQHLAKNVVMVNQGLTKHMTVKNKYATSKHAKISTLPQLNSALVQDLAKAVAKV
Cyclin-dependent kinase 1/cyclin B, sequence (Q8WWL7 whole entry): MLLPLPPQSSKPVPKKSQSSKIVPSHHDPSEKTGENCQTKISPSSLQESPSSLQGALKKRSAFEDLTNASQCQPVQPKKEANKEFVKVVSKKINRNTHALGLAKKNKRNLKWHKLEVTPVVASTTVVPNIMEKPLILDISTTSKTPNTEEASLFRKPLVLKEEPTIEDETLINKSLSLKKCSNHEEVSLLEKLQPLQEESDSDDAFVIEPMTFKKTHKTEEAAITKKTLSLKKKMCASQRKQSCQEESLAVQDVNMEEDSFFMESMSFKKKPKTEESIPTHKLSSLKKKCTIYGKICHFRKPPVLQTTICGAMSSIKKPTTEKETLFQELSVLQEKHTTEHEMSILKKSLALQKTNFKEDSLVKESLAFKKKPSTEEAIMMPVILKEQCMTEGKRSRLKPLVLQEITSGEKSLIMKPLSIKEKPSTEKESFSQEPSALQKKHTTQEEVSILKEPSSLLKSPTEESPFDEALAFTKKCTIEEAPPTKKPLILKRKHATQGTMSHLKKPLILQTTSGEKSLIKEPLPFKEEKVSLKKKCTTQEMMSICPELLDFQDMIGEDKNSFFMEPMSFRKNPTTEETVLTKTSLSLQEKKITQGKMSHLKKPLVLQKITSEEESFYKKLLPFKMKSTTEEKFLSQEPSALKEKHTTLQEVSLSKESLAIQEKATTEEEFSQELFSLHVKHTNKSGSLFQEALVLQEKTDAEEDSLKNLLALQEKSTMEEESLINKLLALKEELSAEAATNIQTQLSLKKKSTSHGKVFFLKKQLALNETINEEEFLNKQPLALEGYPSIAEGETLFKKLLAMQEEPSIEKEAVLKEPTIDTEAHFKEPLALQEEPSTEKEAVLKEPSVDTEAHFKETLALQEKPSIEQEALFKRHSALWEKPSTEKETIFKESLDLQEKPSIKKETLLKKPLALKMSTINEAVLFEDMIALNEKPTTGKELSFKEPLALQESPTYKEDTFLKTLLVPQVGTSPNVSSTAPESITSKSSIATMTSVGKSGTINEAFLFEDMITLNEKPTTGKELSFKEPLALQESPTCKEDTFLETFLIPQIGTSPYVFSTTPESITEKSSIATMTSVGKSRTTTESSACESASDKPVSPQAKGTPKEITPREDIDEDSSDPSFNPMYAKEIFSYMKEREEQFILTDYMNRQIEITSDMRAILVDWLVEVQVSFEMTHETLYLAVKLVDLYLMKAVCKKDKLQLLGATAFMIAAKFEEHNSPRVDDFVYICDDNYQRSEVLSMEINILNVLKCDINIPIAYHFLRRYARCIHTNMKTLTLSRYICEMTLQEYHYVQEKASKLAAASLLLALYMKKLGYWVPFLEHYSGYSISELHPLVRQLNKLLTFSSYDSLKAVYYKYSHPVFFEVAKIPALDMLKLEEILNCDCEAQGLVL
Cyclin-dependent kinase 1/cyclin B, sequence (O95067 whole entry): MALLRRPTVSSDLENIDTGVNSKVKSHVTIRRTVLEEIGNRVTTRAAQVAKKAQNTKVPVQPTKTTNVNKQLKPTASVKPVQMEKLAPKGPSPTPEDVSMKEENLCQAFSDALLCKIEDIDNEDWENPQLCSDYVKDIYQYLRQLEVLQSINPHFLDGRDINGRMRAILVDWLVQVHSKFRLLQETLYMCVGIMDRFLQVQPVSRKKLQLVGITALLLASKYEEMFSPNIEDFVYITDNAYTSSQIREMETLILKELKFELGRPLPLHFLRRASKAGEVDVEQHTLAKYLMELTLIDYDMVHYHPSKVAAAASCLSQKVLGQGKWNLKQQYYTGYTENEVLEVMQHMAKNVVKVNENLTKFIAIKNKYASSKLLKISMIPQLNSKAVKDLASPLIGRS

SMILES | IC50 [1] [µM] | GI50 (NCI) [µM] | IC50 [2] [µM]
c1nc(OCC2CCCCC2)c2nc[nH]c2n1 | 13 | 55 | 
Cn1cnc2c(OCC3CCCCC3)nc(N)nc21 | > 100 | > 100 | 
Nc1cc(OCC2CCCCC2)nc(N)n1 | > 10 | > 100 | > 10
